Reference: patent US20230089073A1 (Carmot Therapeutics, Inc., priority 2021, published 2023)
pEC50: −log10 of the molar value.

The compounds below were run against T1, human GLP-1 receptor (Homo sapiens, UniProt P43220) (assay: GLP-1R cAMP Assay). Settings: not given.
T1 construct: expressed in transfected cells
Assay type: cell-based
In short: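 Luminescent enzyme-complementation detection of cAMP, read after cell lysis and overnight incubation, with dose-response curve fitting. Stimulation lasted 30 min, using 20-point triplicate dosing on CHO cells (10,000 per well) stably overexpressing human GLP-1R.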

T1 sequence (P43220 24-463): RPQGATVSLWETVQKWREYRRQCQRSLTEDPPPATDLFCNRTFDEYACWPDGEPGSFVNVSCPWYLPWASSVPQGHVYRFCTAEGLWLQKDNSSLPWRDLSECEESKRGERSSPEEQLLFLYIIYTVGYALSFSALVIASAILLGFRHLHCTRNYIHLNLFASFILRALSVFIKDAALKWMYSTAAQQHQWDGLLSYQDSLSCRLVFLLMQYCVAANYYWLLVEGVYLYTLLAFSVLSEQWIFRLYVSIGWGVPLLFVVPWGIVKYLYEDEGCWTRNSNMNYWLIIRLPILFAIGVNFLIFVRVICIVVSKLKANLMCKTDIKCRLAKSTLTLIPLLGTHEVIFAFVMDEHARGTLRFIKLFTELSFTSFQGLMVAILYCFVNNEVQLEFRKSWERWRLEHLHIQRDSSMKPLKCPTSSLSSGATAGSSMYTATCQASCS

`C[C@H]1C[C@@H](Oc2ccnc(COc3ccc(C#N)cc3F)c2)CCN1Cc1nc2ccc(C(=O)O)cc2n1C[C@@H]1CCO1` [Compound 363] gave a pEC50 of over 7.30.

Same assay, conditions: cAMP accumulation in CHO cells stably overexpressing the human GLP-1 receptor; 30 min treatment; HitHunter cAMP kit; read-out: EC50

`C[C@H]1C[C@@H](Oc2ccnc(COc3ccc(C#N)cc3F)c2)CCN1Cc1nc2c(F)cc(C(=O)O)cc2n1C[C@@H]1CCO1` [Compound 501, 2-{[(2S,4S)-4-({2-[(4-cyano-2-fluorophenoxy)methyl]pyridin-4-yl}oxy)-2-methylpiperidin-1-yl]methyl}-4-fluoro-1-{[(2S)-oxetan-2-yl]methyl}-1H-1,3-benzodiazole-6-carboxylic acid] and `N#Cc1ccc(OCc2cc(OC3CCN(Cc4nc5c(F)cc(C(=O)O)cc5n4C[C@@H]4CCO4)CC3)ccn2)c(Cl)c1` [Compound 359] cannot be ordered by pEC50: over 7.30 for the first, over 7.30 for the second.

`N#Cc1ccc(OCc2cc(OC3CCN(Cc4nc5c(F)cc(C(=O)O)cc5n4C[C@@H]4CCO4)CC3)c(F)cn2)c(F)c1` [Compound 478, 2-{[4-({2-[(4-cyano-2-fluorophenoxy)methyl]-5-fluoropyridin-4-yl}oxy)piperidin-1-yl]methyl}-4-fluoro-1-{[(2S)-oxetan-2-yl]methyl}-1H-1,3-benzodiazole-6-carboxylic acid] and `N#Cc1ccc(OCc2nccc(OC3CCN(Cc4nc5c(F)cc(C(=O)O)cc5n4C[C@@H]4CCO4)CC3)n2)c(F)c1` [Compound 328] cannot be ordered by pEC50: over 7.30 for the first, over 7.30 for the second.

`O=C(O)c1ccc2nc(CN3CCC(Oc4cccc(COc5ccc(Cl)cc5Cl)n4)CC3)n(C[C@@H]3CCO3)c2c1` [Example 198, (S)-2-((4-((6-((2,4-Dichlorophenoxy)methyl)pyridin-2-yl)oxy)piperidin-1-yl)methyl)-1-(oxetan-2-ylmethyl)-1H-benzo[d]imidazole-6-carboxylic acid] and `O=C(O)c1ccc2nc(CN3CCC(Oc4cccc(COc5ccc(Cl)cc5F)n4)CC3)n(C[C@@H]3CCO3)c2c1` [Compound 249, 2-{[4-({6-[(4-chloro-2-fluorophenoxy)methyl]pyridin-2-yl}oxy)piperidin-1-yl]methyl}-1-{[(2S)-oxetan-2-yl]methyl}-1H-1,3-benzodiazole-6-carboxylic acid] cannot be ordered by pEC50: over 7.30 for the first, over 7.30 for the second.

`CCn1cncc1Cn1c(CN2CCC(Cc3cnc(COc4ccc(Cl)cc4Cl)o3)CC2)nc2ccc(C(=O)O)cc21` [Compound 124, 2-{[4-({2-[(2,4-dichlorophenoxy)methyl]-1,3-oxazol-5-yl}methyl)piperidin-1-yl]methyl}-1-[(1-ethyl-1H-imidazol-5-yl)methyl]-1H-1,3-benzodiazole-6-carboxylic acid] and `CCn1cncc1Cn1c(CN2CC[C@H](Cc3cnc(COc4ccc(Cl)cc4Cl)o3)C[C@@H]2C)nc2ccc(C(=O)O)cc21` [Compound 279, 2-{[(2S,4S)-4-({2-[(2,4-dichlorophenoxy)methyl]-1,3-oxazol-5-yl}methyl)-2-methylpiperidin-1-yl]methyl}-1-[(1-ethyl-1H-imidazol-5-yl)methyl]-1H-1,3-benzodiazole-6-carboxylic acid] cannot be ordered by pEC50: over 7.30 for the first, over 7.30 for the second.

`CN(C)C(=O)c1ccc(OCc2ccc(C(=O)N3CCN(Cc4nc5ccc(C(=O)O)cc5n4C[C@@H]4CCO4)CC3)o2)c(F)c1` [Compound 49, 2-{[4-(5-{[4-(dimethylcarbamoyl)-2-fluorophenoxy]methyl}furan-2-carbonyl)piperazin-1-yl]methyl}-1-{[(2S)-oxetan-2-yl]methyl}-1H-1,3-benzodiazole-6-carboxylic acid] and `O=C(O)c1ccc2nc(CN3CCN(C(=O)c4cccc(Oc5cc(Cl)ccc5Cl)c4)CC3)n(C[C@@H]3CCO3)c2c1` [Compound 11, 2-({4-[3-(2,5-dichlorophenoxy)benzoyl]piperazin-1-yl}methyl)-1-{[(2S)-oxetan-2-yl]methyl}-1H-1,3-benzodiazole-6-carboxylic acid] cannot be ordered by pEC50: under 6.30 for the first, under 6.30 for the second.

`CCn1cncc1Cn1c(CN2CCC(Oc3ccnc(COc4ccc(Cl)cc4C#N)c3)CC2(C)C)nc2ccc(C(=O)O)cc21` (stereo not shown) [Example 276, 2-((4-((2-((4-Chloro-2-cyanophenoxy)methyl)pyridin-4-yl)oxy)-2,2-dimethylpiperidin-1-yl)methyl)-1-((1-ethyl-1H-imidazol-5-yl)methyl)-1H-benzo[d]imidazole-6-carboxylic acid] and `Cn1cncc1Cn1c(CN2CCC(Oc3ccnc(COc4ccc(Cl)cc4C#N)c3)CC2)nc2ccc(C(=O)O)cc21` [Compound 259, 2-{[4-({2-[(4-chloro-2-cyanophenoxy)methyl]pyridin-4-yl}oxy)piperidin-1-yl]methyl}-1-[(1-methyl-1H-imidazol-5-yl)methyl]-1H-1,3-benzodiazole-6-carboxylic acid] cannot be ordered by pEC50: over 7.30 for the first, over 7.30 for the second.

`Cn1cncc1Cn1c(CN2CCC(Oc3cccc(COc4ccc(Cl)cc4F)n3)CC2)nc2ccc(C(=O)O)cc21` [Compound 264, 2-{[4-({6-[(4-chloro-2-fluorophenoxy)methyl]pyridin-2-yl}oxy)piperidin-1-yl]methyl}-1-[(1-methyl-1H-imidazol-5-yl)methyl]-1H-1,3-benzodiazole-6-carboxylic acid] and `O=C(O)c1ccc2nc(CN3CCC(Oc4cccc(COc5ccc(Cl)cc5F)n4)CC3)n(Cc3cnco3)c2c1` [Compound 269, 2-{[4-({6-[(4-chloro-2-fluorophenoxy)methyl]pyridin-2-yl}oxy)piperidin-1-yl]methyl}-1-[(1,3-oxazol-5-yl)methyl]-1H-1,3-benzodiazole-6-carboxylic acid] cannot be ordered by pEC50: over 7.30 for the first, over 7.30 for the second.

`N#Cc1ccc(OCc2cccc(OC3CCN(Cc4nc5ccc(C(=O)O)cc5n4C[C@@H]4CCO4)CC3)n2)c(F)c1` [Example 285, (S)-2-((4-((6-((4-Cyano-2-fluorophenoxy)methyl)pyridin-2-yl)oxy)piperidin-1-yl)methyl)-1-(oxetan-2-ylmethyl)-1H-benzo[d]imidazole-6-carboxylic acid] and `O=C(O)c1ccc2nc(CN3CCC(Oc4cccc(COc5ccc(C(F)F)cc5F)c4)CC3)n(C[C@@H]3CCO3)c2c1` [Compound 301] cannot be ordered by pEC50: over 7.30 for the first, over 7.30 for the second.

`C[C@H]1C[C@@H](Oc2nc(COc3ccc(C#N)cc3F)ncc2F)CCN1Cc1nc2ccc(C(=O)O)cc2n1C[C@@H]1CCO1` [Compound 493, 2-{[(2S,4S)-4-({2-[(4-cyano-2-fluorophenoxy)methyl]-5-fluoropyrimidin-4-yl}oxy)-2-methylpiperidin-1-yl]methyl}-1-{[(2S)-oxetan-2-yl]methyl}-1H-1,3-benzodiazole-6-carboxylic acid] and `N#Cc1ccc(OCc2nccc(OC3CCN(Cc4nc5ccc(C(=O)O)cc5n4CC4(CF)CC4)CC3)n2)c(F)c1` [Compound 343] cannot be ordered by pEC50: over 7.30 for the first, over 7.30 for the second.

`CCn1cncc1Cn1c(CN2CCN(C(=O)c3cccc(CN(C)c4ccc(C)cc4Cl)c3)CC2)nc2ccc(C(=O)O)cc21` [Compound 77, 2-{[4-(3-{[(2-chloro-4-methylphenyl)(methyl)amino]methyl}benzoyl)piperazin-1-yl]methyl}-1-[(1-ethyl-1H-imidazol-5-yl)methyl]-1H-1,3-benzodiazole-6-carboxylic acid] and `CCn1cncc1Cn1c(CN2CCN(C(=O)c3cccc(COc4ccc(C#N)cc4F)c3)CC2)nc2ccc(C(=O)O)cc21` [Compound 69, 2-[(4-{3-[(4-cyano-2-fluorophenoxy)methyl]benzoyl}piperazin-1-yl)methyl]-1-[(1-ethyl-1H-imidazol-5-yl)methyl]-1H-1,3-benzodiazole-6-carboxylic acid] cannot be ordered by pEC50: under 6.30 for the first, under 6.30 for the second.

First: Cc1ccc(N(C)c2cccc(OC3CCN(Cc4nc5ccc(C(=O)O)cc5n4C[C@@H]4CCO4)CC3)c2)c(Cl)c1 [Example 111, (S)-2-((4-(3-((2-Chloro-4-methylphenyl)(methyl)amino)phenoxy)piperidin-1-yl)methyl)-1-(oxetan-2-ylmethyl)-1H-benzo[d]imidazole-6-carboxylic acid]
Second: O=C(O)c1ccc2nc(CN3CCC(Cc4ccc(F)c(COc5ccc(Cl)cc5Cl)c4)CC3)n(C[C@@H]3CCO3)c2c1 [Compound 162, 2-{[4-({3-[(2,4-dichlorophenoxy)methyl]-4-fluorophenyl}methyl)piperidin-1-yl]methyl}-1-{[(2S)-oxetan-2-yl]methyl}-1H-1,3-benzodiazole-6-carboxylic acid]
The pEC50 of the first is lower: 6.30 to 7.30 for the first, over 7.30 for the second.

`CCn1cncc1Cn1c(CN2CC[C@H](Oc3ccnc(COc4ccc(Cl)cc4Cl)c3)C[C@@H]2C)nc2ccc(C(=O)O)cc21` [Example 274, 2-(((2S,4S)-4-((2-((2,4-Dichlorophenoxy)methyl)pyridin-4-yl)oxy)-2-methylpiperidin-1-yl)methyl)-1-((1-ethyl-1H-imidazol-5-yl)methyl)-1H-benzo[d]imidazole-6-carboxylic acid] and `CCn1cncc1Cn1c(CN2CCC(Cc3ccnc(COc4ccc(Cl)cc4Cl)c3)CC2)nc2ccc(C(=O)O)cc21` [Example 128, 2-((4-((2-((2,4-Dichlorophenoxy)methyl)pyridin-4-yl)methyl)piperidin-1-yl)methyl)-1-((1-ethyl-1H-imidazol-5-yl)methyl)-1H-benzo[d]imidazole-6-carboxylic acid] cannot be ordered by pEC50: over 7.30 for the first, over 7.30 for the second.

`CCn1cncc1Cn1c(CN2CCC([C@@H](F)c3cccc(COc4ccc(Cl)cc4Cl)c3)CC2)nc2ccc(C(=O)O)cc21` (single isomer, unassigned) [Compound 203] and `CCn1cncc1Cn1c(CN2CCC(C(F)(F)c3cccc(COc4ccc(Cl)cc4Cl)c3)CC2)nc2ccc(C(=O)O)cc21` [Compound 161, 2-{[4-({3-[(2,4-dichlorophenoxy)methyl]phenyl}difluoromethyl)piperidin-1-yl]methyl}-1-[(1-ethyl-1H-imidazol-5-yl)methyl]-1H-1,3-benzodiazole-6-carboxylic acid] cannot be ordered by pEC50: over 7.30 for the first, over 7.30 for the second.

With `Cc1cc(C(=O)O)cc2c1nc(CN1CCC(Oc3ccnc(COc4ccc(F)cc4C#N)n3)CC1)n2C[C@@H]1CCO1` [Compound 500, 2-{[4-({2-[(2-cyano-4-fluorophenoxy)methyl]pyrimidin-4-yl}oxy)piperidin-1-yl]methyl}-4-methyl-1-{[(2S)-oxetan-2-yl]methyl}-1H-1,3-benzodiazole-6-carboxylic acid] the pEC50 was over 7.30.
